Data reported in patent US9062095B2, “Mutant double cyclized receptor peptides inhibiting β1-adrenoceptor antibodies” (JULIUS-MAXIMILIANS-UNIVERSTITAT-WURZBURG, priority 2007, dated 2015).
Positions of bridges follow the written chain, without caps; N, C: chain ends. Non-standard residues stand in square brackets, D forms with d.

How the values were obtained:
[1] = tested on: antibody-induced cellular cAMP-production of HEK 293-β1 cells (β1-receptor-mediated signalling); experiment: functional cAMP-assay by fluorescence resonance energy transfer (FRET); type: cell-based, human; conditions: anti-β1-ECII IgG of a representative rat, preincubation 12 h, 4° C. (FIG. 6)
Procedure: FIG. 6 is a diagram depicting the blocking capacity of β1-ECII-18AA cyclopeptide mutants having a D-Glu ring closure on β1-receptor-mediated signalling (functional cAMP-assay) using an approach by fluorescence resonance energy transfer (FRET). The effect of the preincubation (12 h, 4° C., rotating incubator) of anti-β1-ECII IgG antibodies of a representative rat (serum) (FIG. 4, rat number 4) with β1-ECII-18AA-cyclopeptide mutants (Cys/Ser mutation, dark blue (3); Ser/Cys mutation, light blue (4)) was compared with the effect of a 3 Cys-containing 25AA Cys/Cys cyclopeptide (red (2)) or the result obtained with anti-β1-ECII IgG antibodies in the absence of blocking peptides (black (1)). The y-axis represents the normalized YFP/CFP-ratio of the registered FRET emission signals, the x-axis corresponds to the registration time given in seconds (s).
The blocking capacity of β1-ECII 25AA or 18AA cyclopeptide mutants (having a D-Glu/Gln at the ring closure site or not) on β1-receptor-mediated signalling (functional cAMP-assay) was assayed using an approach by fluorescence resonance energy transfer (FRET) (FIG. 6).
The effect of the pre-incubation (12 h, 4° C., rotating incubator) of anti-β1-ECII IgG antibodies of a representative rat with β1-ECII-18AA cyclopeptide mutants (Cys/Ser or Ser/Cys mutations, respectively) was compared with the inhibitory effect of a 3 Cys-containing 25AA Cys/Cys cyclopeptide or with the effect of anti-β1-ECII IgG antibodies not incubated with blocking peptides. The normalized YFP/CFP-ratio of the registered FRET emission signals served to quantify the effect of the cyclopeptide mutants of the present invention in terms of blockade (in percent) of antibody-induced cellular cAMP-production of transiently Epac1-transfected stably β1-AR expressing human embryonic kidney cells (HEK 293-β1 cells). The x-axis in FIG. 6 corresponds to the registration time given in seconds (s).

anti-β1-ECII antibodies = experiment: ELISA-competition assay: peptide preincubated with sera/IgG of immunized antibody-positive rats, linear 25AA Cys/Cys-peptide as antigen; type: binding, rat; set-up: blocking capacity (% of blocked versus non-blocked ELISA-reactivity): concentration or dose not given beside the values; conditions: for blocking capacity (% of blocked versus non-blocked ELISA-reactivity): IgG from n=78 immunized antibody-positive rats, preincubation 12 h, mutants with D-Glu ring closure (FIG. 7); for blocking capacity (% of blocked versus non-blocked ELISA-reactivity) / blocking efficiency (% of blocked versus non-blocked ELISA reactivity) / blocking capacity (% of blocked versus non-blocked ELISA reactivity): ±SEM; for blocking efficiency (% of blocked versus non-blocked ELISA reactivity): type1 sera (93%, n=64 of 69), FIG. 9 upper panel; for blocking capacity (% of blocked versus non-blocked ELISA reactivity): type 2 sera (7%, n=5 of 69), FIG. 9 lower panel; for ability to significantly block antibody-binding to the β1-ECII-antigen: IgG-fractions from 12 rats, 18AA mutants with D-Glu ring closure (FIG. 4); for fraction of rat sera blocked by the peptide: n=82 sera, D-Glu ring closure (FIG. 8), Cys/Ser = blocked by it alone, Ser/Cys = sera blocked by both mutants; for decrease in circulating free anti-beta1-ECII antibodies: n=6 sera (FIG. 11)
Procedure: FIG. 9 is a diagram composed of two major-(upper and lower) panels resuming the blocking effect of both 25AA- and 18AA-cyclopeptide mutants having a Gln closure site, as well as 18AA cyclopeptide mutants having a D-Glu closure site after preincubation (12 h, 4° C., rotating incubation) with sera isolated from 69 different immunized antibody-positive rats in an ELISA-competition assay using the 3 Cys-containing linear 25AA Cys/Cys-peptide as an antigen. The upper panel depicts rat sera preferentially reacting with the Cys/Ser mutated cyclopeptides (type1 reaction, n=64), separated in cyc25AA(Gln)-peptides (left) and cyc18AA(Gln and D-Glu)-peptides (right). The lower panel depicts the rat sera reacting with both the Cys/Ser and the Ser/Cys mutated cyclopeptides (type2 reaction, n=5), again separated in the results obtained with cyc25AA(Gln)-peptides (left) and cyc18AA(Gln and D-Glu)-peptides (right).
FIG. 11 is a diagram resuming the dose-dependent (x-axis, abscissa: fold molar excess of specific peptides) blocking capacity of various linear and cyclic beta1-ECII-peptides given in % of the unblocked antibody-titer (y-axis, ordinate), including 25AA Cys/Cys linear peptides (black squares), 25AA Cys/Ser cyclopeptide mutants (white squares), 18AA Cys/Cys cyclo-peptides (black diamonds), 18AA Cys/Ser cyclopeptide mutants (white diamonds), and 18AA Cys/Ser linear peptide mutants (vertically hatched diamonds) in an ELISA competition assay performed with sera from n=6 randomly chosen immunized antibody-positive rats.
FIGS. 27A and B depict the in vitro blocking (=neutralization) capacity of various cysteine-containing cyclopeptide variants of the second extracellular loop (ECII) of the human beta1-adrenergic receptor, determined by testing n=6 individual sera (27A) of immunized beta1-ECII-antibody-positive rats after over-night incubation with the indicated cyclopeptides (12-14 h, 4° C.) by ELISA. Columns in 27A represent the receptor-antibody blocking efficiency of the indicated cyclopeptides in % of the antibody-(ELISA-)signals obtained with unblocked antibody-positive rat sera. Columns in 27B represent the mean blocking efficiency for each cyclopeptide, error bars indicate ±SEM.
The blocking capacity of β1-ECII-18AA cyclopeptide mutants (Cys13-Ser14 or Ser13-Cys14 mutation having an additional D-Glu-Gln exchange, e.g. at the ring closure site) was compared with the 3 Cys-containing 25AA or 18AA Cys/Cys cyclopeptides after preincubation (12 h, 4° C., rotating incubation over-night) of different numbers of sera from immunized antibody-positive rats in an ELISA-competition assay using the 3 Cys-containing linear 25AA Cys/Cys-peptide as an antigen. FIGS. 4, 5, and 7-10 show the results from measurements performed with sera of n=12 up to n=82 immunized antibody-positive rats using different cyclopeptides of the present invention.

[2] = tested on: beta1-receptor antibodies; experiment: in vivo prevention study: five prophylactic peptide applications, serum antibody-titers by ELISA; set-up: species or system rat; conditions: 1.0 mg/kg body weight i.v., 4-weekly, prevention protocol (FIG. 12)
Procedure: FIG. 12 is a diagram resuming the in vivo blocking capacity of in total five (prophylatic) applications of various linear and cyclic beta1-ECII-peptides, started 3 months after the first immunization (and two subsequent beta1-ECII/GST-antigen-boosts, corresponding to a prevention protocol). Serum-titers of the beta1-receptor antibodies were determined before and 18-20 h after each peptide injection (abscissa, time in months) and are given in % of the corresponding antibody-titers of immunized untreated rats (y-axis, ordinate). The injected peptides were: 25AA Cys/Cys linear peptide (black squares), […] (white squares), 18AA Cys/Cys cyclopeptide (black diamond), 18AA Cys/Ser cyclopeptide mutant (white diamonds), and the 18AA Cys/Ser linear peptide mutant (vertically hatched diamonds). […] Black circles indicate antibody-titers of untreated regularly (every 4 weeks) immunized animals serving as reference, set at 100%.
The in-vivo blocking effects of both 25AA and 18AA Cys/Ser mutant cyclopeptides (with a Gln closure site), the 18AA Ser/Cys mutant cyclopeptide, and a mutated linear 18AA Cys/Ser peptide were analyzed after intravenous (i.v.) injection of 1.0 mg/kg body weight (Bw) of each construct into freshly immunized antibody-positive rats (i.e., use of cyclo-peptides in a kind of “prevention” study), with a first cyclopeptide-application 3 months after the initial immunization (and two subsequent boost at months 2 and 3). In total, five prophylactic applications of the various constructs were given at 4-weekly intervals, always two weeks after the monthly continued antigen boost. Sera were drawn 18-20 hours after i.v. injection and assayed for reactivity by ELISA using the 3 Cys-containing linear 25AA Cys/Cys-peptide as an antigen (FIG. 12).

[3] = tested on: anti-beta1-ECII antibody-secreting cells (ASC); experiment: ELISPOT-assay with B-cells from bone marrow or spleen of prophylactically treated rats; type: in vivo, rat; conditions: prophylactically treated versus untreated immunized rats, n=3-4 (FIG. 13)
Procedure: Cys/Ser, horizontally hatched columns). For the assays, ELIspot plates were coated overnight with the specific antigen (GST/beta1-ECII-FP) in 0.05 mol/1 Tris buffer, pH 9.4.; then the plates were washed 3 times and blocked with BSA for 3 hours at 37° C. Subsequently, the plates were incubated overnight at 37° C. with B-cells from either spleen or bone marrow (cultured in RPMI 1640/X-VIVO-15 medium supplemented with 10% fetal calf serum (FCS)) with 1×10^6 to 1×10^3 cells per well. After 12 hours the B-cells were discarded and the plates with the B-cell secreted IgG bound were washed several times (PBS/0.5° A) Tween) before the addition of alkaline phos-phatase conjugated secondary anti-rat IgG (0.3 μg/ml) to detect bound rat IgG. Then the plates were incubated for another 3 hours at 37° C., washed several times with PBS/0.5% Tween, and developed using LMP/BICP 5:1 (1 ml per well; “LMP” means low melting agarose, and “BICP” means 5-bromo-4-chloro-3-indolyl phosphate p-toluidine salt, a blue-colored dye) allowing for a quantification of the blue spots obtained, with each spot representing an antigen-specific IgG secreting spleen or bone-marrow cell.
This finding was confirmed by ELIspot analysis of bone marrow and spleen cell preparations of selected cyclopeptide-treated versus untreated immunized rats (n=3).

ability to significantly block antibody-binding to the β1-ECII-antigen (anti-β1-ECII antibodies)	blocking of receptor antibodies versus Ser/Cys counterpart or linear 25AA Cys/Cys peptide (anti-β1-ECII antibodies; dose-titration, two to eight-fold molar excess, one representative serum (FIG. 5))	Substance	inhibition of functional antibody-effects (blocking intracellular cAMP-increases) [1]	blocking capacity (% of blocked versus non-blocked ELISA-reactivity) (anti-β1-ECII antibodies; 4° C.) [%]	blocking efficiency (% of blocked versus non-blocked ELISA reactivity) (anti-β1-ECII antibodies) [%]	blocking capacity (% of blocked versus non-blocked ELISA reactivity) (anti-β1-ECII antibodies) [%]	blocking effect compared with the 3 Cys-containing β1-ECII-18AA Cys/Cys cyclopeptide (anti-β1-ECII antibodies; IgG-fractions from 12 rats (FIG. 4))	fraction of rat sera blocked by the peptide (anti-β1-ECII antibodies; listed as ECII-18AA Cys/Ser mutant) [%]	fraction of rat sera blocked by the peptide (anti-β1-ECII antibodies; listed as β1-ECII-18AA Cys/Ser mutated cyclopeptide (D-Glu ring closure))	antibody-titer decrease after 5 injections, compared with untreated immunized animals [2] [%]	number of specific anti-beta1-ECII antibody-secreting cells (ASC) in spleen and bone marrow [3]	blocking-efficiency versus unblocked sera (anti-β1-ECII antibodies; n=6 sera, incubation 12-14 h, 4° C., mean ±SEM (FIG. 27)) [%]	decrease in circulating free anti-beta1-ECII antibodies (anti-β1-ECII antibodies; 8-fold molar excess of peptide) [%]	decrease in circulating free anti-beta1-ECII antibodies (anti-β1-ECII antibodies; 20-fold molar excess of peptide) [%]	decrease in circulating free anti-beta1-ECII antibodies (anti-β1-ECII antibodies; 80-fold molar excess of peptide)	fraction of rat sera blocked by the peptide (anti-β1-ECII antibodies; listed as 18AA Ser/Cys-mutants)	fraction of rat sera blocked by the peptide (anti-β1-ECII antibodies; listed as cyclic ECII-18AA Ser/Cys mutants) [%]
		cyclo(Ala-Arg-Ala-Glu-Ser-Asp-Glu-Ala-Arg-Arg-Cys-Tyr-Asn-Asp-Pro-Lys-Ser-Cys-Asp-Phe-Val-Thr-Asn-Arg-Gln) (cyclo(ARAESDEARRCYNDPKSCDFVTNRQ); disulfide 11-18 (inferred)) [25AA Ser/Cys]	almost no inhibitory effect	6±2	6±2	37±7											
able to significantly block	consistently largely superior	cyclo(Ala-Asp-Glu-Ala-Arg-Arg-Cys-Tyr-Asn-Asp-Pro-Lys-Cys-Ser-Asp-Phe-Val-DGlu) (cyclo(ADEARRCYNDPKCSDFV[dE]); disulfide 7-13 (inferred))	largely superior to its Ser/Cys counterpart, and even slightly more effective than a 3 Cys-containing 25AA Cys/Cys cyclopeptide	69±2	69±2	47±5	comparable or (in more than half of the sera analyzed n=8/12) was even more effective	> 95	About 95%								
		25AA Cys/Cys cyclopeptides: 3 Cys-containing β1-ECII-25AA Cys/Cys cyclopeptide (β1-ECII-CP of WO 2006/103101) (cyclo(ARAESDEARRCYNDPKCCDFVTNRQ); disulfide (positions not given here)) [reference compound]		67±2	65±2	72±5				87.7±2	significant decrease	73.4±5.0					
		Ala-Asp-Glu-Ala-Arg-Arg-Cys-Tyr-Asn-Asp-Pro-Lys-Cys-Ser-Asp-Phe-Val-Gln (cyclo(ADEARRCYNDPKCSDFVQ); disulfide 7-13 (inferred)) [linear 18AA Cys/Ser peptides, reference compound]								4.5±11	no effect		24	35	about 50%		
not		cyclo(Ala-Asp-Glu-Ala-Arg-Arg-Cys-Tyr-Asn-Asp-Pro-Lys-Ser-Cys-Asp-Phe-Val-DGlu) (cyclo(ADEARRCYNDPKSCDFV[dE]); disulfide 7-14 (inferred)) [18AA Ser/Cys with D-Glu-closure]	almost no inhibitory effect	1±2	1±2	33±5										about 5%	< 5
